pEC50, pIC50: −log10 of the molar value.
Key:
[1] = Cell toxicity (CC50); format: cell-based; conditions: human, HuH-7 cells
[2] = molecular target: PI3KC2B (Homo sapiens (Human), UniProt O00750); assay: PI3KC2B kinase assay; format: biochemical; conditions: kinase activity
Procedure: PI-kinase assay: Compounds are tested in C.1.1. PI kinase assays as described by Shokat et al., “A membrane capture assay for lipid kinase activity.” Nat. Protoc. 2007; 2(10):2459-66.
(§1) Selected compounds of Table 1 and 2 were prepared and tested for inhibition activity in a variety of kinase assays.

[3] = test system: HCV2a; assay: microbe, parasite or virus in culture; format: cell-based, HCV; conditions: Hepatitis C virus, Huh7.5, read-out: HCV2a EC50
[4] = molecular target: PI3K p110a (Homo sapiens (Human), UniProt P42336); assay: PI3K p110a kinase assay; format: biochemical; conditions: kinase activity
[5] = molecular target: PI3KC2G (Homo sapiens (Human), UniProt O75747); assay: PI3KC2G kinase assay; format: biochemical; conditions: kinase activity
Procedure: PI-kinase assay: Compounds are tested in C.1.1. PI kinase assays as described by Shokat et al., “A membrane capture assay for lipid kinase activity.” Nat. Protoc.
as §1

[6] = molecular target: PI3K p110g (Homo sapiens (Human), UniProt P48736); assay: PI3K p110g kinase assay; format: biochemical; conditions: kinase activity
[7] = molecular target: PI4KIIIB (Bos taurus (Bovine), UniProt O02810); assay: PI4KIIIβ kinase assay (immunoprecipitated HA-tagged enzyme, [γ-32P]-ATP); format: biochemical; conditions: kinase activity
[8] = test system: HRV; assay: Rhinovirus antiviral assay; format: cell-based; conditions: Human rhinovirus sp.
[9] = test system: Ebola; assay: microbe, parasite or virus in culture; format: cell-based; conditions: Zaire ebolavirus, read-out: Ebola EC50
[10] = test system: EV71; assay: EV71 antiviral assay; format: cell-based; conditions: Enterovirus A
[11] = molecular target: PI4KIIIA (Homo sapiens (Human), UniProt P42356); assay: PI4KIIIα kinase assay (immunoprecipitated HA-tagged enzyme, [γ-32P]-ATP); format: biochemical; conditions: kinase activity
[12] = test system: Influenza A virus H1N1; assay: Influenza A virus H1N1 cell based antiviral assay
[13] = test system: Coxsackie virus B3; assay: Coxsackie virus B3 cell based antiviral assay; conditions: Enterovirus B
[14] = test system: Dengue virus 2; assay: Dengue virus 2 cell based antiviral assay
[15] = test system: Enterovirus 68; assay: Enterovirus 68 cell based antiviral assay; conditions: Enterovirus D
[16] = test system: NV (GT1); assay: NV (GT1) cell based antiviral assay
Procedure: Compounds of interest were tested in a variety of cell based assays for antiviral activity.

[17] = test system: Adenovirus 5 (Adenoid 75); assay: Adenovirus 5 cell based antiviral assay; conditions: Human mastadenovirus C
[18] = test system: Poliovirus (WM-3); assay: microbe, parasite or virus in culture; format: cell-based; conditions: Enterovirus C, read-out: Poliovirus (WM-3) EC50 (uM)
[19] = test system: MERS coronavirus; assay: microbe, parasite or virus in culture; format: cell-based; conditions: Middle East respiratory syndrome-related coronavirus, read-out: MERS coronavirus EC50 (uM)
[20] = test system: Enterovirus 71; assay: Enterovirus 71 cell based antiviral assay; conditions: Enterovirus A

Sequence of PI3KC2B (O00750 whole entry): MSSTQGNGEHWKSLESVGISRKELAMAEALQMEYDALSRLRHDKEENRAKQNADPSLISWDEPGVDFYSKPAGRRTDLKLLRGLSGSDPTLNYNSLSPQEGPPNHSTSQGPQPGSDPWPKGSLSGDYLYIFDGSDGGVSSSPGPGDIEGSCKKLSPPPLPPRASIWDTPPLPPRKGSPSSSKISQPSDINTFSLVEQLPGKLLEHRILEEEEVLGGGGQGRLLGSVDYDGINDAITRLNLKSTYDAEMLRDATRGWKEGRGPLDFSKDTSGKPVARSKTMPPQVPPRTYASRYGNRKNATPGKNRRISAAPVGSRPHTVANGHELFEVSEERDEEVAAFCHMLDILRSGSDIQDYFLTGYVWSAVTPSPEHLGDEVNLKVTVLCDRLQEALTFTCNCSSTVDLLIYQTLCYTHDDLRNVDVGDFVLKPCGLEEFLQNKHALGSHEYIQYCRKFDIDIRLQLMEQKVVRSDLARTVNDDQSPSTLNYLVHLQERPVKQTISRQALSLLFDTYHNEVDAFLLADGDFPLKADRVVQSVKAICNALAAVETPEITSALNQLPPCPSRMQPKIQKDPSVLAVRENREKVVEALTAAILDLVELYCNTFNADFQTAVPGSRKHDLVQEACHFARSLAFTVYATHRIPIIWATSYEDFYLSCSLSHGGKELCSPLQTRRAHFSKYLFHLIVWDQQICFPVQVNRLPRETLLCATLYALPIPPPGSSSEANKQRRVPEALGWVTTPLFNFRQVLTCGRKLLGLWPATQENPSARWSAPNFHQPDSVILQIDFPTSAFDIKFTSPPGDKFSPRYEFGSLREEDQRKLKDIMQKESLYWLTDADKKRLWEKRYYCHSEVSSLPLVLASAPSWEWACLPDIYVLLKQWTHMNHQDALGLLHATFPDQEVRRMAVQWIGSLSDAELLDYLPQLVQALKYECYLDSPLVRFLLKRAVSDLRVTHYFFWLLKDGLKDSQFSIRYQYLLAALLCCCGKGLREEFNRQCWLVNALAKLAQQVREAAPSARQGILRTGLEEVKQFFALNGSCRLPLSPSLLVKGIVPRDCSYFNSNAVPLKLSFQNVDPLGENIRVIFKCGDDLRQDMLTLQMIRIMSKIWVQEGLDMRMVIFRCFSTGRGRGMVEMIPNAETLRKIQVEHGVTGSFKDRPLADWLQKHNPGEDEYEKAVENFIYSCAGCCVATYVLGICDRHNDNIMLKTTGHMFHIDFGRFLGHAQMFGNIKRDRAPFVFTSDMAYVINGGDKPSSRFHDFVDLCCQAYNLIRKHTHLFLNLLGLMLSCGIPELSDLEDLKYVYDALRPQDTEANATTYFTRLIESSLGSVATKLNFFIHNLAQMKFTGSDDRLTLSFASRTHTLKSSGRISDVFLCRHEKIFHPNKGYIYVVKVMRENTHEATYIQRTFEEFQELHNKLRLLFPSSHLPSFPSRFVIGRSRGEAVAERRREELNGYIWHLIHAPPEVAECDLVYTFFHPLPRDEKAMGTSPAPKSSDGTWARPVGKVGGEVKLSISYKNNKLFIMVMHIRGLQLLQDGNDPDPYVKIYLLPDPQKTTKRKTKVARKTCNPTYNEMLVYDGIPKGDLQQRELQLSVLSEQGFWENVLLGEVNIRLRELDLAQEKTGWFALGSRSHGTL
Sequence of PI3KC2G (O75747 whole entry): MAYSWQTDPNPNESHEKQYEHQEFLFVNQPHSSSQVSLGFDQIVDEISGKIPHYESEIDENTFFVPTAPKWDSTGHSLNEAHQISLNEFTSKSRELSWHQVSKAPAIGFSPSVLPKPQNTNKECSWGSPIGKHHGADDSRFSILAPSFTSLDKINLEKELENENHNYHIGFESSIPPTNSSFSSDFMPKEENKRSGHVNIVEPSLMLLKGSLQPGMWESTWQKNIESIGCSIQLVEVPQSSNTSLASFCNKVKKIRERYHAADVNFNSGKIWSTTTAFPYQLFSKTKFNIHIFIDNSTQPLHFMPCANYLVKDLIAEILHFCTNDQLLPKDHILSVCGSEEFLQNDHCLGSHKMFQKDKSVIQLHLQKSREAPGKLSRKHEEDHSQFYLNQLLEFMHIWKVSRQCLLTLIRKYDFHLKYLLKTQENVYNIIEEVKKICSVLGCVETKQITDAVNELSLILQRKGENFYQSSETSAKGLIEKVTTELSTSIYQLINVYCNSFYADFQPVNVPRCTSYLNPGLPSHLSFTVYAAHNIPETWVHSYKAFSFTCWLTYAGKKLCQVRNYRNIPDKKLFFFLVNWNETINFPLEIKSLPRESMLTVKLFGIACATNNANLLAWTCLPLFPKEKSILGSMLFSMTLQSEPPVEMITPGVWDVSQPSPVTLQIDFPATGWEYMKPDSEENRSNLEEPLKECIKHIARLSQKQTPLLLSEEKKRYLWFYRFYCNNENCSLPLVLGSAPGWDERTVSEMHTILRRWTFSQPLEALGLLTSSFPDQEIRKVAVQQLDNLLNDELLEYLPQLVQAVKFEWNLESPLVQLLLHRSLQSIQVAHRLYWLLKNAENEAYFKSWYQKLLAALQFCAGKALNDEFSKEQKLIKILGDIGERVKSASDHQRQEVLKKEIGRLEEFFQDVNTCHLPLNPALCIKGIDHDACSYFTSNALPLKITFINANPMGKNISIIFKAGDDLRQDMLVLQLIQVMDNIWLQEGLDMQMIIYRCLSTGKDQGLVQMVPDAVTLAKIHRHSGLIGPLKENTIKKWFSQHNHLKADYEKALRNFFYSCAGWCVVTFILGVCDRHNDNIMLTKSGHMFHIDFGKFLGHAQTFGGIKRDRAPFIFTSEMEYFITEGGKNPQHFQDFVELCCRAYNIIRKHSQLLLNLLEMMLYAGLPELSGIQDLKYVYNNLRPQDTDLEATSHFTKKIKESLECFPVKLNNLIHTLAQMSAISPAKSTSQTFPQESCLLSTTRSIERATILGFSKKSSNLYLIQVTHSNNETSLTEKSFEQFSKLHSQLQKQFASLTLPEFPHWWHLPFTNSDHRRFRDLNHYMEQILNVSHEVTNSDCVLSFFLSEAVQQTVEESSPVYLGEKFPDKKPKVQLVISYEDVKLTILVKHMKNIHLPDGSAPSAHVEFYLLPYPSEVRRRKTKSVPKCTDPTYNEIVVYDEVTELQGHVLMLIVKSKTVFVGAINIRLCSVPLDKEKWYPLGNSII
Sequence of PI4KIIIB (O02810 whole entry): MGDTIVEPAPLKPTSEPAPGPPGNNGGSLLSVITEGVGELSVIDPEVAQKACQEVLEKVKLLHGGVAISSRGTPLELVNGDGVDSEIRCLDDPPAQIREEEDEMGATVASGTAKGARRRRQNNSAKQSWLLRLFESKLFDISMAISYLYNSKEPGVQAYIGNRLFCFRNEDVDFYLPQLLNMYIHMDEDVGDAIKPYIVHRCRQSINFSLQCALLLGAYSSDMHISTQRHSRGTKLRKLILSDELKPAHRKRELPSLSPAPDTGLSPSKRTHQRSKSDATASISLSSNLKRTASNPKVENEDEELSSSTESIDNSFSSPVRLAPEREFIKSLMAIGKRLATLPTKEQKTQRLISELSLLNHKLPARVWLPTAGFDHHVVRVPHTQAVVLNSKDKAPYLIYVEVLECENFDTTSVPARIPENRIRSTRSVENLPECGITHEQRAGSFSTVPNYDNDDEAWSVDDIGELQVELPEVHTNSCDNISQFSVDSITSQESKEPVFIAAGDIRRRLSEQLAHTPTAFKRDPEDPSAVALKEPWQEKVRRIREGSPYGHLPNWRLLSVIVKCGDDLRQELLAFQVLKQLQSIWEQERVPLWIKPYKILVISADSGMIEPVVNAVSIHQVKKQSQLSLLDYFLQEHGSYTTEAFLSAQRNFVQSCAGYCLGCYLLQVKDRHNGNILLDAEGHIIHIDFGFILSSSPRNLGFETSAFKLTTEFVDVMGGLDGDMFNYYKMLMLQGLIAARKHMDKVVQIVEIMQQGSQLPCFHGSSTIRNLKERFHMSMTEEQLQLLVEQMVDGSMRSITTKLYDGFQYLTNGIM
Sequence of PI3K p110g (P48736 whole entry): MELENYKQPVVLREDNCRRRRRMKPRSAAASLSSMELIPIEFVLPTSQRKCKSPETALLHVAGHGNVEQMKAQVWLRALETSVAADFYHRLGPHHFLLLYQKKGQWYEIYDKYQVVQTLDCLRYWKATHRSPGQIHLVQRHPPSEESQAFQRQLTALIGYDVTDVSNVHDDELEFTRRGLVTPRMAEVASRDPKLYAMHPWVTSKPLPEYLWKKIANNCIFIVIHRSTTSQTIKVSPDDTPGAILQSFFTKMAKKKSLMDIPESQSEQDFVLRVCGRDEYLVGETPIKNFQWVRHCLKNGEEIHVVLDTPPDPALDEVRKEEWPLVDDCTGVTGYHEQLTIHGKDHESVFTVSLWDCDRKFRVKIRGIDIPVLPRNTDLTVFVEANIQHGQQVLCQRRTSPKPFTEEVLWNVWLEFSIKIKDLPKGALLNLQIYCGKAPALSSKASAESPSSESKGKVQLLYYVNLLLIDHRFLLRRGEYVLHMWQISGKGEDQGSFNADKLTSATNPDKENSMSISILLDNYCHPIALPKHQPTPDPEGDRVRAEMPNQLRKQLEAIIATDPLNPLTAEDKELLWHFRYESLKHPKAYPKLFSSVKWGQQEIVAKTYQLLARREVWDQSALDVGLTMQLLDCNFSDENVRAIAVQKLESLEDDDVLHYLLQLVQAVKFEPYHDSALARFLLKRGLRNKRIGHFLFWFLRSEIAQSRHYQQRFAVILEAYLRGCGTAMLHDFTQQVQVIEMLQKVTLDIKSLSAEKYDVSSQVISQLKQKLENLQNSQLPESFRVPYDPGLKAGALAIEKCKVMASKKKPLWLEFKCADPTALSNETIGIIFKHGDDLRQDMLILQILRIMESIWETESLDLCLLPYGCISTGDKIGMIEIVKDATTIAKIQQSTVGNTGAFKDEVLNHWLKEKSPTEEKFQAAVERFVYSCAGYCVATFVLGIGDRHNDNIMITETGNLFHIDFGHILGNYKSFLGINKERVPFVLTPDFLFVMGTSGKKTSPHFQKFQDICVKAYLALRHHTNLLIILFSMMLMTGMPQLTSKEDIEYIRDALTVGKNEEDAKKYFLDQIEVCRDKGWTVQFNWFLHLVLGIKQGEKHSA

| SMILES | CC50 [1] | pIC50 [5] | pIC50 [6] | pIC50 [7] | pIC50 [11] | also measured |
| --- | --- | --- | --- | --- | --- | --- |
| COc1ccc(-c2sc(NC(=O)CC3CCCC3)nc2C)cc1S(=O)(=O)Nc1ccc(O)cc1 [Compound S-1] | > 10000 nM | > 7.00 | < 5.00 | > 7.00 |  | pIC50 [2]: < 5.00; pEC50 [3]: 7.00 to 9.00; pIC50 [4]: < 5.00 |
| COc1ccc(-c2sc(NCC3CCCCC3)nc2C)cc1S(=O)(=O)Nc1ccccc1F [Compound S-29] | > 10000 nM |  |  |  |  |  |
| COc1ccc(-c2sc(NCC3CCCCC3)nc2C)cc1S(=O)(=O)Nc1cccc(C(C)(C)C)c1 [Compound S-32] | > 10000 nM |  |  |  |  | pEC50 [8]: > 9.00; pEC50 [3]: 5.00 to 6.00; pEC50 [9]: 5.00 to 6.00 |
| COc1ccc(NS(=O)(=O)c2cc(-c3sc(NC4CCCCC4)nc3C)ccc2OC)c(C)c1 [Compound S-66] | > 10000 nM |  |  |  |  | pEC50 [8]: > 9.00; pEC50 [3]: 5.00 to 6.00 |
| COc1ccc(NS(=O)(=O)c2cc(-c3sc(NC(=O)CC4CCCCC4)nc3C)ccc2OC)c(C)c1 [Compound S-85] | > 10000 nM |  |  |  |  |  |
| COc1ccc(NS(=O)(=O)c2cc(-c3sc(NC4CCCCCC4)nc3C)ccc2OC)c(C)c1 [Compound S-89] | > 10000 nM |  |  |  |  |  |
| COc1ccc(-c2sc(NC3CCCCCC3)nc2C)cc1S(=O)(=O)Nc1c(C)cccc1C [Compound S-98] | > 10000 nM |  | < 5.00 | > 7.00 | < 5.00 | pEC50 [10]: > 9.00; pEC50 [8]: > 9.00; pEC50 [12]: < 5.00; pEC50 [3]: 5.00 to 6.00; pEC50 [13]: 7.00 to 9.00; pEC50 [14]: < 5.00; pEC50 [15]: > 9.00; pEC50 [16]: 5.00 to 6.00; pEC50 [17]: < 5.00; pIC50 [4]: < 5.00; EC50 [18]: 0.001 to 0.1 µM; EC50 [19]: > 10 µM; pEC50 [20]: 7.00 to 9.00 |
| COc1ccc(-c2sc(NC(=O)CC3CCCC3)nc2C)cc1S(=O)(=O)Nc1ccc(C)nc1 [Compound S-100] |  |  | < 5.00 | 6.00 to 7.00 | < 5.00 |  |
| COc1ccc(-c2sc(NC3CCCCC3)nc2C)cc1S(=O)(=O)Nc1ccc(O)cc1C [Compound S-106] | > 10000 nM |  |  |  |  |  |
| COc1ccc(-c2sc(NCC3CCCCC3)nc2C)cc1S(=O)(=O)NC1CCCNC1 (centres unmarked) [Compound S-115] | > 10000 nM |  |  |  |  | pEC50 [3]: 6.00 to 7.00 |
| COc1ccc(-c2sc(NCC3CCCCC3)nc2C)cc1S(=O)(=O)NC1CC1 [Compound S-127] |  | < 5.00 | < 5.00 | 6.00 to 7.00 | < 5.00 |  |
| COc1ccc(-c2sc(NCC3CCCCC3)nc2C)cc1S(=O)(=O)NCC1CCCCC1 [Compound S-128] |  | < 5.00 | < 5.00 | 6.00 to 7.00 | < 5.00 |  |
| COc1ccc(-c2sc(NC3CCCCC3)nc2C)cc1S(=O)(=O)NC1CCCC1 [Compound S-129] |  | < 5.00 | < 5.00 | 6.00 to 7.00 | < 5.00 |  |
| COc1ccc(-c2sc(NC3CCCCC3)nc2C)cc1S(=O)(=O)NC1CCCCCC1 [Compound S-131] |  | < 5.00 |  | 6.00 to 7.00 | < 5.00 |  |
| COc1ccc(-c2sc(NC(=O)[C@@H](C)C3CCCCC3)nc2C)cc1S(=O)(=O)Nc1ccc(O)cc1 [Compound S-138] | > 10000 nM |  |  |  |  |  |
| COc1ccc(-c2sc(N[C@H](C)CC3CCCCC3)nc2C)cc1S(=O)(=O)NC1CCNCC1 [Compound S-145] |  |  | < 5.00 | > 7.00 | 6.00 to 7.00 | pIC50 [4]: < 5.00 |
| COc1ccc(-c2sc(N[C@H](C)C3CCCCC3)nc2C)cc1S(=O)(=O)NC1CCNCC1 [Compound S-147] |  |  | < 5.00 | > 7.00 | 6.00 to 7.00 | pIC50 [4]: < 5.00 |
| COc1ccc(-c2sc(N[C@H](C)C3CCCCC3)nc2C)cc1S(=O)(=O)NC1CCCNC1 (some centres unmarked) [Compound S-148] |  |  | < 5.00 |  |  |  |
| COc1ccc(-c2sc(NC(=O)CCC3CCCC3)nc2C)cc1S(=O)(=O)NC1CCNCC1 [Compound S-160] |  | 6.00 to 7.00 | < 5.00 | > 7.00 |  | pIC50 [2]: < 5.00 |

| SMILES | CC50 [1] | pIC50 [5] | pIC50 [6] | pIC50 [7] | pIC50 [11] | also measured |
| --- | --- | --- | --- | --- | --- | --- |
| COc1ccc(-c2sc(NC(=O)CC3CCOCC3)nc2C)cc1S(=O)(=O)Nc1cc(C)cc(O)c1 [Compound S-169] |  | < 5.00 | < 5.00 | > 7.00 | > 7.00 | pIC50 [4]: < 5.00 |
| COc1ccc(-c2sc(NC(=O)CC3CCOCC3)nc2C)cc1S(=O)(=O)Nc1ccc(F)cc1 [Compound S-170] |  | < 5.00 | < 5.00 | > 7.00 | > 7.00 | pIC50 [4]: < 5.00 |
| COc1ccc(-c2sc(N[C@H](C)C3CCCCC3)nc2C)cc1S(=O)(=O)N[C@H]1CC[C@H](O)CC1 [Compound S-193] |  | < 5.00 |  | > 7.00 |  | pIC50 [2]: < 5.00 |
| COc1ccc(-c2sc(NCCC3CCCCC3)nc2C)cc1S(=O)(=O)NC1CCC(O)C1 (centres unmarked) [Compound S-214] |  |  | < 5.00 |  |  |  |
| COc1ccc(-c2sc(NC(C)C)nc2C)cc1S(=O)(=O)N[C@H]1CC[C@H](O)CC1 [Compound S-215] |  | 5.00 to 6.00 | < 5.00 | > 7.00 | 5.00 to 6.00 | pIC50 [2]: < 5.00 |
| COc1ccc(-c2sc(NC(C)(C)C)nc2C)cc1S(=O)(=O)N[C@H]1CC[C@H](O)CC1 [Compound S-216] |  | 5.00 to 6.00 | < 5.00 | > 7.00 |  | pIC50 [2]: < 5.00 |
| COc1ccc(-c2sc(NC(=O)CC3CCOCC3)nc2C)cc1S(=O)(=O)Nc1ccccc1C [Compound S-228] | > 10000 nM |  |  |  |  |  |
| COc1ccc(-c2sc(NC(=O)CC3CCOCC3)nc2C)cc1S(=O)(=O)Nc1ccc(O)cc1C [Compound S-231] |  | 6.00 to 7.00 | < 5.00 | > 7.00 |  | pIC50 [2]: < 5.00 |
| COc1ncc(-c2sc(NC(=O)CC3CCOCC3)nc2C)cc1S(=O)(=O)Nc1cccc(O)c1 [Compound S-259] |  | 5.00 to 6.00 |  | > 7.00 | > 7.00 | pIC50 [4]: 5.00 to 6.00 |
| COc1ncc(-c2sc(NC(=O)CC3CCOCC3)nc2C)cc1S(=O)(=O)Nc1ccc(F)cc1F [Compound S-260] | > 10000 nM | < 5.00 | < 5.00 | > 7.00 | > 7.00 | pEC50 [3]: 6.00 to 7.00; pIC50 [4]: < 5.00 |
| COc1ncc(-c2sc(NC(=O)CC3CCOCC3)nc2C)cc1S(=O)(=O)Nc1ccc(O)cc1 [Compound S-261] | > 10000 nM | 6.00 to 7.00 |  | > 7.00 | > 7.00 | pEC50 [3]: 7.00 to 9.00; pIC50 [4]: 6.00 to 7.00 |
| COc1ncc(-c2sc(NC(=O)CC3CCOCC3)nc2C)cc1S(=O)(=O)N[C@H]1CC[C@@H](O)CC1 [Compound S-262] |  | 6.00 to 7.00 |  | > 7.00 | > 7.00 | pIC50 [4]: < 5.00 |
| COc1ncc(-c2sc(NC(=O)CC3CCOCC3)nc2C)cc1S(=O)(=O)NC1CCCC(O)C1 (centres unmarked) [Compound S-263] | > 10000 nM |  |  |  |  | pEC50 [3]: 7.00 to 9.00 |
| COc1ncc(-c2sc(NC(=O)CC3CCOCC3)nc2C)cc1S(=O)(=O)Nc1cccc(C(=O)O)c1 [Compound S-265] |  | 5.00 to 6.00 | < 5.00 | > 7.00 | > 7.00 | pIC50 [4]: < 5.00 |
| COc1ccc(-c2sc(NC(C)C3CCOCC3)nc2C)cc1S(=O)(=O)Nc1ccccc1Cl (centres unmarked) [Compound S-316] |  |  |  |  |  | pEC50 ([10]; Table 5): 7.00 to 9.00; pEC50 ([8]; Table 5): 7.00 to 9.00; pEC50 [12]: 5.00 to 6.00; pEC50 [13]: 7.00 to 9.00; pEC50 [14]: 5.00 to 6.00; pEC50 [15]: 7.00 to 9.00; pEC50 [17]: < 5.00; EC50 [18]: 0.1 to 1 µM; EC50 [19]: 1 to 10 µM; pEC50 [20]: 7.00 to 9.00 |
| COc1ccc(-c2sc(NC(C)C3CCOCC3)nc2C)cc1S(=O)(=O)NC1CCC(O)CC1 (centres unmarked) [Compound S-328] |  |  |  |  |  | pEC50 ([10]; Table 5): 7.00 to 9.00; pEC50 ([8]; Table 5): 7.00 to 9.00; pEC50 [12]: < 5.00; pEC50 [13]: 7.00 to 9.00; pEC50 [14]: < 5.00; pEC50 [15]: 7.00 to 9.00; pEC50 [17]: < 5.00; EC50 [18]: 0.001 to 0.1 µM; EC50 [19]: > 10 µM; pEC50 [20]: 7.00 to 9.00 |
| COc1ncc(-c2sc(NC(C)C3CCOCC3)nc2C)cc1S(=O)(=O)Nc1ccccc1Cl (centres unmarked) [Compound S-341] |  |  |  |  |  | pEC50 ([10]; Table 5): 7.00 to 9.00; pEC50 ([8]; Table 5): 7.00 to 9.00 |
| COc1ncc(-c2sc(NC(C)C3CCOCC3)nc2C)cc1S(=O)(=O)Nc1ccc(O)cc1Cl (centres unmarked) [Compound S-375] |  |  |  |  |  | pEC50 ([10]; Table 5): 7.00 to 9.00; pEC50 ([8]; Table 5): 7.00 to 9.00 |

Source: patent US11091472B2, “PI-kinase inhibitors with anti-infective activity” (The Board of Trustees of the Leland Stanford Junior …, priority 2016, dated 2021)
